Data on two compounds can be found in US20210106567A1, “COMPOSITIONS AND METHODS FOR INHIBITING CARP-1 BINDING TO NEMO” (United States Government As Represented By The Department …, priority 2019, published 2021).

For data set [1], the system named is parental and chemo-resistant human and murine TNBC cells and parental renal cancer cells. Description: Cytokine ELISA of culture media, chemotherapy-induced secretion. The note with it: single agent. The data set is classed as cell-based. (In an ELISA, binding on a coated surface is turned into a signal by an enzyme label.)
In data set [2] the test system is mammospheres derived from human TNBC PDX tumors. The data set is described as follows: Three-dimensional mammosphere assay (MTT). Type of data set: cell-based. The conditions noted are these: Homo sapiens; 5 μM for 48 h.
Protocol: Three-dimensional Mammosphere Assays: The PDX tumor cells were dissociated from the tumor fragments, and cultured for 2-dimensional and mammosphere studies in vitro (Cheriyan et al. (2016) Oncotarget 7, 73370-73388). Briefly, the cells were washed twice in 1×PBS, trypsinized, and pelleted at 200×g at room temperature. Cells were then re-suspended in 5 ml of mammosphere media (DMEM/F12 containing 2 mM L-glutamine, 100 U/ml penicillin, 100 U/ml streptomycin, 1×B27 supplement, 20 ng/ml recombinant human epidermal growth factor (EGF; Sigma), 10 ng/ml recombinant human basic fibroblast growth factor (bFGF; R&D Systems). Approximately 5000 viable cells per ml was then seeded in an ultra-low adherent 60 mm plate and incubated at 37° C. and 5% CO2 for two weeks without disturbing the plates. After the mammospheres formed, fresh media with or without Adriamycin (5 μM), SNI-1 (2.5 or 5.0 μM), or a combination of these agents was added and the cells incubated for additional 48 h at 37° C. and 5% CO2. The mammospheres in the untreated and treated plates were photographed, and the cells were then dissociated to determine their viabilities by the MTT assay (Cheriyan et al. (2016) Oncotarget 7, 73370-73388).
Another data set has as its system MDA-MB-231 TNBC cells. The conditions noted are these: Wen et al. (2018); read-out: IC50, growth inhibition; cited from earlier work.
In a further data set the test system is 4T1 TNBC tumors. Description: 4T1 TNBC syngeneic tumor efficacy study in Balb/c mice. The data set is classed as in vivo, mouse. The conditions noted are these: for serum levels of TNFα and IL-1β: ELISA of sera. As for the experimental part:
Establishment of TNBC cell-derived xenografts in Syngeneic mice: Generation of 4T1 TNBC cell-derived sub-cutaneous xenografts in Balb/c mice were performed (Cheriyan et al. (2016) Oncotarget 7, 73370-73388; and Cheriyan et al. (2017) Oncotarget 8, 104928-104945). BALB/cAnNCr, 6-8-weeks old, female mice were purchased from Charles River Laboratories (Horsham, Pa.). Following suitable acclimation of animals, 1×10^6 4T1 TNBC cells were re-suspended in 200 μl of sterile saline, and implanted in the flanks using a 27-gauge needle. Tumors were allowed to grow to 500-1000 mg (˜10 days), and the aseptically harvested, minced into 3-4 mm^3 (30 mg) fragments and transplanted SC into naïve recipient mice using a standard 12 gauge trocar to serially maintain the tumor in vivo. For efficacy studies, tumors serially maintained in vivo were aseptically harvested and minced into 3-4 mm^3 (30 mg) fragments, then bilaterally transplanted subcutaneously along the flanks using a standard 12 gauge trocar. […] For the efficacy studies, SNI-1 was formulated in 8% DMSO (v/v) and 8% Cremophor (v/v) in cell grade water, pH4 as diluent.
Clinical grade ADR stock (2 mg/mL) was diluted to the appropriate concentration with cell grade water; pH4 and clinical grade CIS (1 mg/ml) diluted with USP 0.9% saline; pH6). Mice were monitored daily for changes in condition and body weight. Tumors were measured three times weekly by caliper and tumor volume (mg) was calculated using the following formula: (A×B2)/2 where A and B are the tumor length and width (in mm), respectively. […] Efficacy was also assessed quantitatively using tumor growth delay (T−C) defined as the difference between the median time (in days) required for the treatment group tumors (T) to reach 1000 mg and the median time (days) for the control group tumors to reach the same volume. Post last treatment, tumor tissue and samples from various organs (spleen, liver, kidney, heart, bone, and lungs) were collected. Additionally, the whole blood samples were obtained from a representative tumor-bearing mouse from each group via terminal cardiac puncture. Immuno-histochemical analyses of the tumor and tissue samples were performed for expression of activated RelA (serine 536 phosphorylated p65), total RelA, cleaved caspase-3, and CARP-1 proteins. The levels of pro-inflammatory cytokines in the sera were analyzed by sandwich ELISA assays following methods detailed herein (Cheriyan et al. (2016) Oncotarget 7, 73370-73388; and Cheriyan et al. (2017) Oncotarget 8, 104928-104945).

A further data set relates to cleaved RIPK1. Description: Western blot for RIPK1 cleavage. Type of data set: cell-based. The text has this: (§1) The cells were lysed to prepare protein extracts.
(In general: In western blotting, separated proteins are transferred to a membrane and probed.)

For data set [3], the system named is p65/RelA activation and phosphorylation of NEMO. The data set is described as follows: Western blot for canonical NF-κB activation. The note with it: single agent, Western blot. Type of data set: cell-based.
Excerpt: as §1

The subject of another data set is MDR1. Description: Levels of drug efflux pump MDR1. The note with it: MDA-MB-468 cells. The data set is classed as cell-based, human. The text has this:
Of note is that SNI-1 in combination with Adriamycin provoked a greater inhibition of tumor growth when compared with the tumor growth inhibition noted in animals treated with either agent alone. […] Since TNBCs and many other cancers are often known to express drug efflux pumps that contribute to lower efficacy of drugs in clinic and development of drug-resistant tumors, it is likely that the presence/expression of these drug efflux pumps function in part to interfere with a robust anti-tumor response to a combination of SNI-1 and Adriamycin.

Data set [4] concerns RENCA renal cancer tumors. The data set is described as follows: RENCA cell-derived syngeneic kidney cancer tumor model. The note with it: throughout the experiment.
Protocol: The subcutaneous tumor bearing mice were treated with indicated agents. […] The end-points for assessing anti-tumor activity involved qualitative determination via tumor growth inhibition (% T/C) where T is the median tumor volume of the treated mice and C is the median tumor volume of the Control mice on any given day of measurement.

Take `COc1cccc2c1C(=O)c1c(O)c3c(c(O)c1C2=O)C[C@@](O)(C(=O)CO)C[C@@H]3O[C@H]1C[C@H](N)[C@H](O)[C@H](C)O1` [Adriamycin]: in data set [1], the “levels of TNFα, IL-8, and IL-1β in the media” value is given as “robust increase”. Besides, the inhibition at 5 µM in data set [2] is ~30%. In addition, the 50% inhibitory concentration (IC50) in the data set on MDA-MB-231 TNBC cells is ~3 µM. For the same compound, the “serum levels of TNFα and IL-1β” value with 4T1 TNBC tumors is recorded as “robustly stimulated”. The “expression of cleaved RIPK1” value in the data set on cleaved RIPK1 is listed as “induced expression of cleaved RIPK1”. Besides, the “p65/RelA activation and phosphorylation of NEMO” value in data set [3] is “robust increase”. In addition, the “levels of drug efflux pump MDR1” value in the data set on MDR1 is “moderate increase”.
As for `N.N.[Cl][Pt][Cl]` [Cisplatin], the “weight loss in animals” value in data set [4] is 0.8-3.2%. Moreover, the “levels of TNFα, IL-8, and IL-1β in the media” value in data set [1] is reported as “robust increase”. For the same compound, the “serum levels of TNFα and IL-1β” value with 4T1 TNBC tumors is “robustly stimulated”. For the same compound, the “phosphorylated p65/RelA in tumors (immuno-histochemistry)” value in the data set on 4T1 TNBC tumors (mouse, in vivo) is “presence of phosphorylated p/65RelA”. In addition, in the data set with 4T1 TNBC tumors (versus untreated control animal), the “cleaved caspase-3 in tumors (immuno-histochemistry)” value was “strong presence of cleaved caspase-3”. For the same compound, the “p65/RelA activation and phosphorylation of NEMO” value in data set [3] is given as “robust increase”. Moreover, in the data set on MDR1, the “levels of drug efflux pump MDR1” value is “robust increase”.

A word on the inhibition: it is the share of the control response that was lost under treatment. Low readings indicate a response near the control, high ones a response far below the control. What is called IC50 is the midpoint of a concentration-inhibition curve.
